Tests used:
Conditions in all cases: 48 h
P12-Ichikawa [1] = assay: AUC of viability dose-response curve (% viability x log10 dose units); higher = less sensitive
Procedure, shortened: (§1)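 Library compounds in DMSO were applied for 48 h at 37°C at 11 threefold doses (47 μM to 0.79 nM) to medium-adapted leukemia cells in 1536-well plates holding 500 or 1000 cells/well. Luminescence from CellTiter-Glo One was normalised plate by plate against DMSO and cell-free wells. Area under the curve came from trapezoidal integration of a log-logistic fit, after scaling curves that rose above full viability and discarding those that failed quality control. The fit had four parameters and used log10 doses.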

SEM cells [2] = assay: as above
Procedure, shortened: as §1

NOMO1 [3] = assay: as above
Procedure, shortened: as §1

P12-Ichikawa [4] = assay: cell viability relative to DMSO control; higher = less cytotoxic
Procedure, shortened: (§2)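 NOMO1 or SEM (500 cells/well) or P12-Ichikawa (1000 cells/well) leukemia cells were adapted for at least four passages in each medium. They were seeded in 1536-well plates (5 μl) and pin-dosed with library compounds in DMSO over an 11-point threefold series, 47 μM to 0.79 nM. CellTiter-Glo One luminescence was read after 48 h at 37°C. Viability is the per-plate percentage relative to DMSO wells, with cell-free wells as background.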

SEM cells [5] = assay: as above
Procedure, shortened: as §2

NOMO1 [6] = assay: as above
Procedure, shortened: as §2

OC(CCN1CCCCC1)(C2CC\3CC2\C=C3)C4=CC=CC=C4 (stereo not drawn)
AUC of viability dose-response curve
Conditions	NOMO1 [3]	P12-Ichikawa [1]	SEM cells [2]
HPLM + 10% dialyzed FBS	465	463	442
RPMI 5 mM glucose + 10% FBS	475	470	440
RPMI 5 mM glucose + 10% dialyzed FBS	453	455	439

cell viability [%]
Conditions	NOMO1 [6]	P12-Ichikawa [4]	SEM cells [5]
HPLM + 10% dialyzed FBS, 0.000781 µM	125	118	102
HPLM + 10% dialyzed FBS, 0.00234 µM	119	128	110
HPLM + 10% dialyzed FBS, 0.00702 µM	125	123	113
HPLM + 10% dialyzed FBS, 0.0211 µM	123	98.1	97.7
HPLM + 10% dialyzed FBS, 0.0632 µM	140	131	123
HPLM + 10% dialyzed FBS, 0.19 µM	133	122	120
HPLM + 10% dialyzed FBS, 0.569 µM	138	134	121
HPLM + 10% dialyzed FBS, 1.71 µM	144	135	94.8
HPLM + 10% dialyzed FBS, 5.12 µM	136	126	118
HPLM + 10% dialyzed FBS, 15.4 µM	117	123	129
HPLM + 10% dialyzed FBS, 46.1 µM	94.2	126	126
RPMI 5 mM glucose + 10% FBS, 0.000781 µM	–	–	94.9
RPMI 5 mM glucose + 10% FBS, 0.00234 µM	–	–	126
RPMI 5 mM glucose + 10% FBS, 0.00702 µM	–	–	115
RPMI 5 mM glucose + 10% FBS, 0.0211 µM	–	–	91
RPMI 5 mM glucose + 10% FBS, 0.0632 µM	–	–	122
RPMI 5 mM glucose + 10% FBS, 0.19 µM	–	–	119
RPMI 5 mM glucose + 10% FBS, 0.569 µM	–	–	116
RPMI 5 mM glucose + 10% FBS, 1.71 µM	–	–	107
RPMI 5 mM glucose + 10% FBS, 5.12 µM	–	–	123
RPMI 5 mM glucose + 10% FBS, 15.4 µM	–	–	134
RPMI 5 mM glucose + 10% FBS, 46.1 µM	–	–	121
RPMI 5 mM glucose + 10% dialyzed FBS, 0.000781 µM	–	118	104
RPMI 5 mM glucose + 10% dialyzed FBS, 0.00234 µM	–	122	104
RPMI 5 mM glucose + 10% dialyzed FBS, 0.00702 µM	–	134	113
RPMI 5 mM glucose + 10% dialyzed FBS, 0.0211 µM	–	91.4	70.2
RPMI 5 mM glucose + 10% dialyzed FBS, 0.0632 µM	–	133	129
RPMI 5 mM glucose + 10% dialyzed FBS, 0.19 µM	–	127	113
RPMI 5 mM glucose + 10% dialyzed FBS, 0.569 µM	–	123	127
RPMI 5 mM glucose + 10% dialyzed FBS, 1.71 µM	–	134	120
RPMI 5 mM glucose + 10% dialyzed FBS, 5.12 µM	–	127	132
RPMI 5 mM glucose + 10% dialyzed FBS, 15.4 µM	–	126	136
RPMI 5 mM glucose + 10% dialyzed FBS, 46.1 µM	–	130	131

CN(C)CC[C@H](CSc1ccccc1)Nc1ccc([S+](=O)([O-])NC(=O)c2ccc(N3CCN(Cc4ccccc4-c4ccc(Cl)cc4)CC3)cc2)cc1[N+](=O)[O-]
AUC of viability dose-response curve
Conditions	NOMO1 [3]	P12-Ichikawa [1]	SEM cells [2]
HPLM + 10% dialyzed FBS	363	321	195
RPMI 5 mM glucose + 10% FBS	388	354	218
RPMI 5 mM glucose + 10% dialyzed FBS	324	338	191

cell viability [%]
Conditions	NOMO1 [6]	P12-Ichikawa [4]	SEM cells [5]
HPLM + 10% dialyzed FBS, 0.000781 µM	140	118	116
HPLM + 10% dialyzed FBS, 0.00234 µM	119	123	126
HPLM + 10% dialyzed FBS, 0.00702 µM	125	120	111
HPLM + 10% dialyzed FBS, 0.0211 µM	108	110	82.7
HPLM + 10% dialyzed FBS, 0.0632 µM	127	115	64.8
HPLM + 10% dialyzed FBS, 0.19 µM	92.5	97.8	23.7
HPLM + 10% dialyzed FBS, 0.569 µM	96.7	85.4	10.8
HPLM + 10% dialyzed FBS, 1.71 µM	102	56.7	8.48
HPLM + 10% dialyzed FBS, 5.12 µM	52.7	14.9	6.85
HPLM + 10% dialyzed FBS, 15.4 µM	50.2	7.53	6.25
HPLM + 10% dialyzed FBS, 46.1 µM	55	4.59	3.88
RPMI 5 mM glucose + 10% FBS, 0.000781 µM	108	127	103
RPMI 5 mM glucose + 10% FBS, 0.00234 µM	118	116	118
RPMI 5 mM glucose + 10% FBS, 0.00702 µM	109	116	110
RPMI 5 mM glucose + 10% FBS, 0.0211 µM	107	115	102
RPMI 5 mM glucose + 10% FBS, 0.0632 µM	99.5	120	73.8
RPMI 5 mM glucose + 10% FBS, 0.19 µM	98.8	115	27.7
RPMI 5 mM glucose + 10% FBS, 0.569 µM	89.5	108	11.1
RPMI 5 mM glucose + 10% FBS, 1.71 µM	80.7	79.9	6.52
RPMI 5 mM glucose + 10% FBS, 5.12 µM	50.8	24.2	4.95
RPMI 5 mM glucose + 10% FBS, 15.4 µM	49.6	12.5	3.98
RPMI 5 mM glucose + 10% FBS, 46.1 µM	60.6	4.92	2.62
RPMI 5 mM glucose + 10% dialyzed FBS, 0.000781 µM	115	124	128
RPMI 5 mM glucose + 10% dialyzed FBS, 0.00234 µM	123	128	91.3
RPMI 5 mM glucose + 10% dialyzed FBS, 0.00702 µM	102	124	99.7
RPMI 5 mM glucose + 10% dialyzed FBS, 0.0211 µM	114	124	81.7
RPMI 5 mM glucose + 10% dialyzed FBS, 0.0632 µM	98.3	119	57.4
RPMI 5 mM glucose + 10% dialyzed FBS, 0.19 µM	85.3	117	19.7
RPMI 5 mM glucose + 10% dialyzed FBS, 0.569 µM	62.7	95.5	11.3
RPMI 5 mM glucose + 10% dialyzed FBS, 1.71 µM	46.1	76.1	8.96
RPMI 5 mM glucose + 10% dialyzed FBS, 5.12 µM	33.9	15.8	5.67
RPMI 5 mM glucose + 10% dialyzed FBS, 15.4 µM	30.6	8.77	4.98
RPMI 5 mM glucose + 10% dialyzed FBS, 46.1 µM	42.5	4.13	3.36

— the supplement of paper PMC11451515
